Consider one compound from patent publication US11053248B2, “[1,2,4]triazolo[1,5-a]pyrimidine compounds as PDE2 inhibitors” (Janssen Pharmaceutica NV, priority 2016, dated 2021).

Data set [1] deals with mossy fiber synapse. The experiment in a line: Effect on synaptic transmission: weak HFS-induced LTP, hippocampal slices (MEA). The class given is cell-based, rat. The text has this: Effect of Test Compounds on Synaptic Transmission Critical Reagents
Sucrose dissection buffer contained (in mM) sucrose (150), NaCl (40), KCl (4), NaH2PO4.H2O (0.3), MgCl.6H2O (7), NaHCO3 (26), CaCl2.2H2O (0.5), D-glucose (10), equilibrated with 95% O2 and 5% CO2 gas mixture. Artificial cerebrospinal fluid (ACSF) used during equilibration and recording contained (in mM): NaCl (124), KCl (2.7), NaH2PO4.H2O (1.25), MgSO4.7H2O (1.3), NaHCO3 (26), CaCl2.2H2O (2), D-glucose (10), Ascorbic acid (2), equilibrated with 95% O2 and 5% CO2 gas mixture. CNQX and Kynurenic acid were prepared in ACSF at a 50 μM and 1 mM concentration respectively. […] All reagents were from Sigma-Aldrich, unless otherwise indicated. […]
All data were recorded with a MEA set-up commercially available from MultiChannel Systems MCS GmbH (Reutlingen, Germany) composed of a 4-channel stimulus generator and a 60-channels amplifier head-stage connected to a 60-channels A/D card. […]
Extracellular field potential recordings. […] All data were recorded with a MEA set-up commercially available from MultiChannel Systems MCS GmbH (Reutlingen, Germany). Two adjacent electrodes of the chip were selected to stimulate the mossy fibres in the hilar region of the dentate gyrus and the fEPSP was recorded the terminal zone area of the CA3 region of the hippocampus. […]

Data set [2] in a line: Solubility (as reported). The class given is physicochemical. The note with it: in words.
Data set [3] has as its target hPDE10A2 (Homo sapiens, UniProt Q9Y233). The experiment in a line: biochemical.

Chain of hPDE10A2 (Q9Y233 267-1055): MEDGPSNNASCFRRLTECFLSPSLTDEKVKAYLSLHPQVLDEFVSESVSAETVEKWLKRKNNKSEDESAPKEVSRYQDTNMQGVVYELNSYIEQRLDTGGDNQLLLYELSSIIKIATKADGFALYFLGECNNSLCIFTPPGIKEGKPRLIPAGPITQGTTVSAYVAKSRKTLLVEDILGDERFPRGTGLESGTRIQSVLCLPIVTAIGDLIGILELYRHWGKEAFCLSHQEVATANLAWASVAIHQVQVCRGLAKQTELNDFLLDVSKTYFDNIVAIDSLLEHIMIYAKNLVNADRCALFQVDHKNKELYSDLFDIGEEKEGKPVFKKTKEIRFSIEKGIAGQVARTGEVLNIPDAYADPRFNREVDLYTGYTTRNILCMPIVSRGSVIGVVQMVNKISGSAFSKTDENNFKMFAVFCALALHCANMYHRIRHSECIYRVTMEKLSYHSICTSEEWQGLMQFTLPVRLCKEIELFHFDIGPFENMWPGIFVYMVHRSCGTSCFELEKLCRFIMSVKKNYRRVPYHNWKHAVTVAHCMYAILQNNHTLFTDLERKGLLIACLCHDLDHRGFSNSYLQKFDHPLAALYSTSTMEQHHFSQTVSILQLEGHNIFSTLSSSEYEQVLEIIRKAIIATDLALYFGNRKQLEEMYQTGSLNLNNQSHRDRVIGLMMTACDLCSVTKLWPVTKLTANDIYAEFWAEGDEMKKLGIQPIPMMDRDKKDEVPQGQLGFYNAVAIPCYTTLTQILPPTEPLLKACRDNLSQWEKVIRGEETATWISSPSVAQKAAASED

The term Emax denotes the size of the effect at its maximum, as opposed to the concentration needed. Turning to `C[C@@H]1CCN(c2nccc3ccc(Br)cc23)C[C@H]1c1cc(C(F)F)nc2ncnn12` [Compound 1], in data set [1] (hippocampal slice, reported, in words), the “penetration to the tissue” value is given as “poor”. For the same compound, the “effect on weak HFS-induction of long term potentiation (LTP)” value in data set [1] (mossy fiber synapse, hippocampal slices of male Sprague-Dawley rats, FIG. 1) is on record as “did not facilitate the induction of LTP”. Further, the solubility result in data set [2] is listed as “poor”. Further, the IC50 in data set [3] (60 nM cAMP substrate, read-out: hPDE10A2 pIC50 (converted)) is 550 nM. Moreover, in data set [3] (read-out: hPDE10A2 Emax), the maximum response (Emax) was found to be 98%.
